From patent publication US20230416205A1, “COMPOUNDS, COMPOSITIONS, AND METHODS” (Denali Therapeutics Inc, priority 2020, published 2023)
Like-named read-outs stand apart in the source and are kept apart here.

Test system: NLRP3
Experiment: IL-1β secretion assay in PMA-differentiated, LPS/nigericin-stimulated THP-1 cells (384-well, ELISA read-out)
Type: cell-based, human
Conditions: IL-1β secretion, LPS/nigericin-stimulated THP-1 cells, read-out: IC50
Method in brief: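 Secreted IL-1β quantified by capture ELISA from supernatants of PMA-differentiated THP-1 cells (30K per well). Sequence: LPS 25 ng/mL priming 2 h, compound 1 h, nigericin 2 h; dose-responses normalized between high (LPS plus 5 μM nigericin) and low (LPS alone) controls.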

SMILES	IC50 (Homo sapiens, THP-1, Table 4)	IC50 (Table 4)
O=C(CN1C[C@]2(C[C@H]2F)c2cc(Br)ccc2C1=O)Nc1ncc(C(F)(F)F)cn1 [Example 308, 2-[(2′R,4S)-6-bromo-2′-fluoro-1-oxospiro[3H-isoquinoline-4,1′-cyclopropane]-2-yl]-N-[5-(trifluoromethyl)pyrimidin-2-yl]acetamide]	25 nM	
O=C(CN1CC2(CC2)c2cc(Br)ccc2C1=O)Nc1ncc(C2CC2(F)F)cn1 (centres unmarked) [Example 309, 2-(6-bromo-1-oxospiro[3H-isoquinoline-4,1′-cyclopropane]-2-yl)-N-[5-(2,2-difluorocyclopropyl)pyrimidin-2-yl]acetamide]	696 nM	
O=C(CN1CC2(CC2)c2c(ccc(OC(F)F)c2F)C1=O)Nc1ncc(F)cn1 [Example 310, 2-[6-(difluoromethoxy)-5-fluoro-1-oxospiro[3H-isoquinoline-4,1′-cyclopropane]-2-yl]-N-(5-fluoropyrimidin-2-yl)acetamide]	1060 nM	
O=C(CN1CC2(CC2)c2nc(C3CC3)ccc2C1=O)Nc1ncc(F)cn1 [Example 311, 2-(2-cyclopropyl-5-oxospiro[7H-1,6-naphthyridine-8,1′-cyclopropane]-6-yl)-N-(5-fluoropyrimidin-2-yl)acetamide]	1410 nM	
CC(F)c1ccc2c(c1)C1(CC1)CN(CC(=O)Nc1ncc(F)cn1)C2=O (centres unmarked) [Example 312, 2-[6-(1-fluoroethyl)-1-oxospiro[3H-isoquinoline-4,1′-cyclopropane]-2-yl]-N-(5-fluoropyrimidin-2-yl)acetamide]	1020 nM	
CCc1ccc2c(c1)C1(CC1)CN(CC(=O)Nc1ncc(F)cn1)C2=O [Example 314, 2-(6-ethyl-1-oxospiro[3H-isoquinoline-4,1′-cyclopropane]-2-yl)-N-(5-fluoropyrimidin-2-yl)acetamide]	784 nM	
O=C(CN1CC2(CC2)c2c(ccc3sccc23)C1=O)Nc1ncc(F)cn1 [Example 315, N-(5-fluoropyrimidin-2-yl)-2-(6-oxospiro[8H-thieno[3,2-f]isoquinoline-9,1′-cyclopropane]-7-yl)acetamide]	8920 nM	
COCOc1cnc(NC(=O)CN2CC3(CC3)c3cc(Br)ccc3C2=O)nc1 [Example 316, 2-(6-bromo-1-oxospiro[3H-isoquinoline-4,1′-cyclopropane]-2-yl)-N-[5-(methoxymethoxy)pyrimidin-2-yl]acetamide]	704 nM	
CC1(O)CC(NC(=O)CN2C[C@]3(C[C@H]3F)c3cc(Br)ccc3C2=O)C1 (stereo partly drawn) [Example 321, N-(cis-3-hydroxy-3-methylcyclobutyl)-2-[(2′R,4S)-6-bromo-2′-fluoro-1-oxospiro[3H-isoquinoline-4,1′-cyclopropane]-2-yl]acetamide]	9 nM	
O=C(CN1CC2(CC2(F)F)c2c(ccc(C3CC3)c2F)C1=O)Nc1ncc(F)cn1 (centres unmarked) [Example 322, N-(5-fluoropyrimidin-2-yl)-2-[6-cyclopropyl-1′,1′,5-trifluoro-1-oxospiro[3H-isoquinoline-4,2′-cyclopropane]-2-yl]acetamide]	38 nM	
O=C(CN1CC2(CC2)c2cc(Br)ccc2C1=O)Nc1ncc2c(n1)OCC2 [Example 329, 2-(6-bromo-1-oxospiro[3H-isoquinoline-4,1′-cyclopropane]-2-yl)-N-(5,6-dihydrofuro[2,3-d]pyrimidin-2-yl)acetamide]	930 nM	
O=C(CN1CC2(CC2)c2cc(Br)ccc2C1=O)Nc1ncc2c(n1)COCC2 [Example 330, 2-(6-bromo-1-oxospiro[3H-isoquinoline-4,1′-cyclopropane]-2-yl)-N-(6,8-dihydro-5H-pyrano[3,4-d]pyrimidin-2-yl)acetamide]	1020 nM	
O=C(CN1CC2(CC2)c2cc(Br)ccc2C1=O)Nc1ncc2c(n1)CCOC2 [Example 331, 2-(6-bromo-1-oxospiro[3H-isoquinoline-4,1′-cyclopropane]-2-yl)-N-(7,8-dihydro-5H-pyrano[4,3-d]pyrimidin-2-yl)acetamide]	970 nM	
O=C(CN1CC2(CC2)c2cc(Br)ccc2C1=O)Nc1ncc(C2COC2)cn1 [Example 332, 2-(6-bromo-1-oxospiro[3H-isoquinoline-4,1′-cyclopropane]-2-yl)-N-[5-(oxetan-3-yl)pyrimidin-2-yl]acetamide]	768 nM	
O=C(CN1CC2(CC2)c2cc(Br)ccc2C1=O)Nc1nc2ccnn2cc1F [Example 333, 2-(6-bromo-1-oxospiro[3H-isoquinoline-4,1′-cyclopropane]-2-yl)-N-(6-fluoropyrazolo[1,5-a]pyrimidin-5-yl)acetamide]	895 nM	
O=C(CN1CC2(CC2)c2cc(Br)ccc2C1=O)N[C@H]1C[C@@H](c2ccn[nH]2)C1 [Example 334, 2-(6-bromo-1-oxospiro[3H-isoquinoline-4,1′-cyclopropane]-2-yl)-N-[3-cis-(1H-pyrazol-5-yl)cyclobutyl]acetamide]	7510 nM	
Cn1nc(NC(=O)CN2CC3(CC3)c3cc(Br)ccc3C2=O)ccc1=O [Example 335, 2-(6-bromo-1-oxospiro[3H-isoquinoline-4,1′-cyclopropane]-2-yl)-N-(1-methyl-6-oxopyridazin-3-yl)acetamide]	2080 nM	
O=C(CN1CC2(CC2)c2cc(C3COC3)ccc2C1=O)Nc1ncc(F)cn1 [Example 336, N-(5-fluoropyrimidin-2-yl)-2-[6-(oxetan-3-yl)-1-oxospiro[3H-isoquinoline-4,1′-cyclopropane]-2-yl]acetamide]	23200 nM	

SMILES	IC50 (Homo sapiens, THP-1, Table 4)	IC50 (Table 4)
Cn1cc(NC(=O)CN2CC3(CC3)c3cc(Br)ccc3C2=O)ncc1=O [Example 337, 2-(6-bromo-1-oxospiro[3H-isoquinoline-4,1′-cyclopropane]-2-yl)-N-(4-methyl-5-oxopyrazin-2-yl)acetamide]	7470 nM	
COc1ccnc(NC(=O)CN2CC3(CC3)c3cc(Br)ccc3C2=O)n1 [Example 338, 2-(6-bromo-1-oxospiro[3H-isoquinoline-4,1′-cyclopropane]-2-yl)-N-(4-methoxypyrimidin-2-yl)acetamide]	1580 nM	
CC(C(=O)Nc1ncc(F)cn1)N1CC2(CC2)c2cc(Br)ccc2C1=O (centres unmarked) [Example 339, 2-(6-bromo-1-oxospiro[3H-isoquinoline-4,1′-cyclopropane]-2-yl)-N-(5-fluoropyrimidin-2-yl)propanamide]	8290 nM	
COC1(C)CC(NC(=O)CN2CC3(CC3)c3cc(Br)ccc3C2=O)C1 (stereo not drawn) [Example 340, 2-(6-bromo-1-oxospiro[3H-isoquinoline-4,1′-cyclopropane]-2-yl)-N-(3-trans-methoxy-3-methylcyclobutyl)acetamide]		7870 nM
COC1(C)CC(NC(=O)CN2CC3(CC3)c3cc(Br)ccc3C2=O)C1 (stereo not drawn) [Example 341, 2-(6-bromo-1-oxospiro[3H-isoquinoline-4,1′-cyclopropane]-2-yl)-N-(3-cis-methoxy-3-methylcyclobutyl)acetamide]		2410 nM
CN(C(=O)CN1CC2(CC2)c2cc(Br)ccc2C1=O)C1CC(C)(O)C1 (stereo not drawn) [Example 342, 2-(6-bromo-1-oxospiro[3H-isoquinoline-4,1′-cyclopropane]-2-yl)-N-(3-cis-hydroxy-3-methylcyclobutyl)-N-methylacetamide]	17100 nM	
O=C(CN1CC2(CC2)c2cc(Br)ccc2C1=O)Nc1nc2ccccn2c1F [Example 343, 2-(6-bromo-1-oxospiro[3H-isoquinoline-4,1′-cyclopropane]-2-yl)-N-(3-fluoroimidazo[1,2-a]pyridin-2-yl)acetamide]	7500 nM	
CC1(C(F)(F)F)CN(CC(=O)Nc2ncc(F)cn2)C(=O)c2c(Br)cccc21 (centres unmarked) [Example 344, 2-[8-bromo-4-methyl-1-oxo-4-(trifluoromethyl)-3H-isoquinolin-2-yl]-N-(5-fluoropyrimidin-2-yl)acetamide]	27600 nM	
N#Cc1cc(F)c(NC(=O)CN2CC3(CC3)c3cc(Br)ccc3C2=O)cn1 [Example 345, 2-(6-bromo-1-oxospiro[3H-isoquinoline-4,1′-cyclopropane]-2-yl)-N-(6-cyano-4-fluoropyridin-3-yl)acetamide]	15100 nM	
O=C(CN1CC2(CC2)c2cc(Br)ccc2C1=O)Nc1nccn2ncnc12 [Example 346, 2-(6-bromo-1-oxospiro[3H-isoquinoline-4,1′-cyclopropane]-2-yl)-N-([1,2,4]triazolo[1,5-a]pyrazin-8-yl)acetamide]	1570 nM	
CN1CCC(NC(=O)CN2CC3(CC3)c3cc(Br)ccc3C2=O)C1=O (centres unmarked) [Example 347, 2-(6-bromo-1-oxospiro[3H-isoquinoline-4,1′-cyclopropane]-2-yl)-N-(1-methyl-2-oxopyrrolidin-3-yl)acetamide]	21500 nM	
Cn1ccnc(NC(=O)CN2CC3(CC3)c3cc(Br)ccc3C2=O)c1=O [Example 348, 2-(6-bromo-1-oxospiro[3H-isoquinoline-4,1′-cyclopropane]-2-yl)-N-(4-methyl-3-oxopyrazin-2-yl)acetamide]	1320 nM	
O=C(CN1CC2(CC2)c2cc(Br)ccc2C1=O)Nc1nccc2cccnc12 [Example 349, 2-(6-bromo-1-oxospiro[3H-isoquinoline-4,1′-cyclopropane]-2-yl)-N-(1,7-naphthyridin-8-yl)acetamide]	4760 nM	
O=C(CN1CC2(CC2)c2cc(Br)ccc2C1=O)Nc1nccn2cnnc12 [Example 350, 2-(6-bromo-1-oxospiro[3H-isoquinoline-4,1′-cyclopropane]-2-yl)-N-([1,2,4]triazolo[4,3-a]pyrazin-8-yl)acetamide]	3590 nM	
O=C(CN1CC2(CC2)c2cc(Br)ccc2C1=O)Nc1nccn2ccnc12 [Example 351]	4230 nM	
O=C(CN1CC2(CC2)c2cc(Br)ccc2C1=O)Nc1nnc2ccccc2n1 [Example 352, N-(1,2,4-benzotriazin-3-yl)-2-(6-bromo-1-oxospiro[3H-isoquinoline-4,1′-cyclopropane]-2-yl)acetamide]	6080 nM	
CC1(C)CN=C(NC(=O)CN2CC3(CC3)c3cc(Br)ccc3C2=O)O1 [Example 353, 2-(6-bromo-1-oxospiro[3H-isoquinoline-4,1′-cyclopropane]-2-yl)-N-(5,5-dimethyl-4H-1,3-oxazol-2-yl)acetamide]	5420 nM	
